Data reported in publication PMC6695731, “Application of a Substrate-Mediated Selection with c-Src Tyrosine Kinase to a DNA-Encoded Chemical Library” (Molecules, 2019).
Where “and” joins values, the source holds several entries; their conditions need not be identical. Equal entries are not always repeated. Entries after “also recorded” stand apart in the source; their conditions may differ.

Experiments:
c-Src [1] = target: T1, c-Src (Homo sapiens, UniProt P12931); experiment: substrate-mediated selection of DNA conjugates (c-Src treatment, anti-phosphotyrosine pulldown), enrichment by qPCR; assay type: biochemical; details: purified DNA conjugates, with kinase treatment
Protocol: To mimic library selection conditions, a DNA-LYNtide construct was mixed with a control construct at a ratio of 1 to 500. This mixture was treated at 50 nM total DNA concentration with Src kinase and the selection was applied. We observed robust enrichment (2600-fold) and recovery (9%) of the LYNtide construct by qPCR (Figure S3).
We then questioned if SrcDEL10 was indeed selected from the library based on the ability to serve as a Src substrate and accept a phosphate.
For optimization of substrate-based selection, two unique 180-mer constructs were prepared by PCR, as previously described. Each contained two unique 20-mer sequences for specific amplification and detection in qPCR. One was prepared with an unmodified forward primer as a control. The other was prepared using a LYNtide 20-mer oligo conjugate as a primer.
Kinase reaction was performed as follows 1x kinase buffer (25 mM Tris-HCl (pH 7.5), 2 mM dithiothreitol (DTT), 0.1 mM Na3VO4, 10 mM MgCl2), 1 mM ATP, different concentrations (1 μM to 100 μM) of substrates (either off DNA or on DNA hit molecules), and 12 nM rSrc by incubation for 2 h at 30 °C. After that, distinct 55mers were annealed to each kinase reaction, as previously described. […]
Figure S3. […] In a model enrichment assay, enrichment for tyrosine kinase substrates was detected by qPCR of model 180-mer constructs. […]

c-Src [2] = target: T1, c-Src; experiment: ADP-Glo assay of compounds as c-Src substrates (ADP production); assay type: biochemical
Protocol: Hit molecules were initially characterized as substrates for c-Src using the luciferase-based ADP-Glo assay (Promega). All six molecules appeared to be efficient substrates for Src kinase.
Kinase reaction was performed as follows 1x kinase buffer (25 mM Tris-HCl (pH 7.5), 2 mM dithiothreitol (DTT), 0.1 mM Na3VO4, 10 mM MgCl2), 1 mM ATP, different concentrations (1 μM to 100 μM) of substrates (either off DNA or on DNA hit molecules), and 12 nM rSrc by incubation for 2 h at 30 °C. After that, distinct 55mers were annealed to each kinase reaction, as previously described. The annealed reactions were incubated with anti Pho-Tyr loaded protein G magnetic bead at RT for 30 min. After washing by three times 20 μL 1xPBST with 1 mg/mL BSA, 1 mg/mL tRNAs), the captured samples were eluted by 20 μL of 1 mM phenylphosphate. The resulting supernatant was then used as a template in qPCR.
After the kinase reaction was performed as previous section, the reaction mixture (5 μL) was incubated with 5 µL of ADP-Glo™ reagent at RT for 40 min and then add 10 µL of kinase detection reagent at RT for 1 h. The luminescence was measure by plate reader.

c-Src [3] = target: T1, c-Src; experiment: HPLC and LC/MS analysis of phosphorylation of the compound by c-Src; assay type: biochemical
Protocol: (§1) To confirm this, compounds were tested with an NADH-based, coupled enzyme assay that also detects ADP generation. […] This additionally supported that the ADP-Glo activity observed was due to activation of ATP hydrolysis and not phosphotransfer to these compounds.
(a) on-DNA binding affinity to c-Src measured by fluorescence polarization in the presence of ATP (100 µM). […] Peak identity was verified by LC/MS analysis (Figure S9). […]
Kina se R e a c t ion w it h 1µM Src
Figure S7. HPLC Analysis of LYNtide Phosphorylation. The kinase reaction was performed by incubating 200 µM LYNtide with Src in 1x kinase buffer (as outlined in section 4.6 NADH coupled assay, […]
with 1mM ATP) for 30 min. […] Peak […]
identities were verified by LC/MS. The peak at 19 minutes is an impurity in the LYNtide alkyne preparation, which was also phosphorylated. […]
[M+H ]+ cal cd. […] O OH […]
Figure S9. LC/MS analysis of SrcDEL10 Phosphorylation. […]
µM ATP and 0.3 µM c-Src at 30 C for 16 hours. […]
and 10 µM c-Src at 30 C for 16 hours. […]

c-Src [4] = target: T1, c-Src; experiment: NADH-based coupled enzyme assay detecting ADP generation; assay type: biochemical; details: 1 mM ATP, 100 µM compound, 12 nM Src, 30 °C, 3 h
Protocol: as §1
Kinase reaction was performed as follows 1x kinase buffer (25 mM Tris-HCl (pH 7.5), 2 mM dithiothreitol (DTT), 0.1 mM Na3VO4, 10 mM MgCl2), 1 mM ATP, 100 μM peptides and 12 nM Src at 30 °C for 3 h. The kinase reaction mixture was incubated with 30 unit/mL lactic dehydrogenase (LDH), 20 unit/mL pyruvate kinase (PK), 2 mM phosphoenolpyruvate (PEP), and 1 mM NADH. The absorbance of NADH was monitored at 340 nm.
Figure S8. NADH Coupled Assay of Hit Molecules with c-Src. Samples were composed of 1 mM ATP,
100 µM putative substrate molecules, and 12 nM c-Src kinase at 30 C for 3 hours. Full method description
is provided in Methods and Materials 4.6 NADH assay.

c-Src [5] = details: LYNtide kinetic parameters for Src; cited from earlier work
Src = Src (Homo sapiens, UniProt P12931); experiment: HPLC-assessed inhibition of LYNtide phosphorylation; assay type: biochemical
Protocol: Kina se R e a c t ion w it h 1 0 nM Sr c
KR with LynT ide N-Alkyne (50uM)
Kina se R e a c t ion w it h 1 0 nM Sr c + Sr c D E L 1 0
300 ~ 25% phosphorylation
KR with LynT ide N-Alkyne (50uM) + Cmpd 10 (100uM)
Figure S11. […] The kinase reaction
30 min, if applicable) in 1x kinase buffer (as outlined in 4.6 NADH coupled assay, with 1mM ATP) for 30

c-Src [6] = target: T1, c-Src; experiment: on-DNA binding affinity to c-Src by fluorescence polarization in the presence of ATP; details: ligand linked to 20-mer oligo hybridized to FAM oligo; ATP 100 µM; read-out: binding constant (Kd)
Protocol: These studies used the HPLC-purified ligand linked to 20-mer oligos, which were prepared for the prior qPCR validations under crude conditions. This construct was hybridized to a fluorescein-containing complementary oligo, and binding constants were determined by changes observed in fluorescence polarization, as previously described.
(a) on-DNA binding affinity to c-Src measured by fluorescence polarization in the presence of ATP (100 µM). […] Peak identity was verified by LC/MS analysis (Figure S9).

[7] = system: STAT3 phosphorylation in NME cells; experiment: cell signaling immunoblot, EGF-stimulated STAT3 phosphorylation (Src-dependent); assay type: cell-based, murine; details: 100 µM prior to EGF (50 ng/mL, 30 min)
From the text: Epidermal growth factor (EGF) stimulation of NME cells leads to STAT3 phosphorylation via a Src-dependent process. […] The broad specificity Src family inhibitor, PP2, was used as a positive control. Importantly, phosphorylation of ERK1/2, which occurs via a Src independent pathway, was not reduced. Similarly, autophosphorylation of EGFR at Y1068 was not affected.
NME cells were constructed via stable overexpression of EGFR in normal murine mammary gland (NMuMG) cells as previously described. These cells were cultured in DMEM containing 10% FBS, 10 μg/mL insulin, penicillin, and streptomycin. For cell signaling assays, cells were plated for 24 h prior to removal of the FBS for an additional 24 h. During this serum starvation, PP2 (Sigma, 529576) or SrcDEL10-ester were added as indicated, and cells were subsequently stimulated with EGF (50 ng/mL) (Goldbio, 1150-04) for 30 min. […] Differential binding of these antibodies was detected using their appropriate secondary antibodies.
NME cells were serum deprived for 24 h in the presence of vehicle control (DMSO), Src family inhibitor PP2 (10 µM), or SrcDEL10-ester (100 µM) for the indicated amounts of time. […] Equal protein aliquots were analyzed by immunoblot with the indicated antibodies. […]

c-Src [8] = target: T1, c-Src; experiment: radiolabel (32P-ATP) inhibition assay of LYNtide phosphorylation by c-Src; assay type: biochemical; details: 32P-ATP 50 µM, biotinylated-LYNtide 50 µM
Protocol: The original six off-DNA hits were tested for inhibition of c-Src activity. For these tests, we used ^32P-ATP as a substrate and detected phosphorylation levels of a biotinylated-LYNtide substrate after adsorption to streptavidin coated membranes. This assay should not be affected by activation of ATP hydrolysis or phosphotransfer to the small molecules. […] There was no apparent correlation of these values to the Km or kcat values in the prior assays as substrates.
Each hit molecule was preincubated with 1.2 nM c-Src at 30 °C for 30 min. The kinase reaction was initiated with the addition of 50 μM LYNtide and 50 μM ATP with 0.15 μCi gamma ^32P ATP at 30 °C for 10 min. The kinase reaction samples (2 µL) were spotted on P81 filter paper consisting of 1.5 cm squares. After air dry, the P81 papers were washed 4 times with 0.5% phosphoric acid for 5 min each. The P81 papers were washed one time with acetone for 5 min. The papers were then allowed to air dry for about 20 min. The dried P81 papers were analyzed by liquid scintillation counter.
Figure 6 Inhibition of hit molecules in a radiolabel assay with ^32P-ATP (50 µM) and biotinylated-LYNtide (50 µM) as substrates.

[9] = Table S3, ADP-Glo assay of SrcDEL10 derivatives, enzyme Src

enrichment in qPCR selection assay (c-Src [1])	kcat (c-Src [2]; ADP-Glo assay) [s⁻¹]	Km (c-Src [2]; ADP-Glo assay, compound as substrate of c-Src)	Km (c-Src [2]; [9]) [µM]	Vmax (c-Src [2]; [9]) [µM/min]	kcat (c-Src [2]; [9]) [s⁻¹]	ADP generation relative to compound (c-Src [4])	inhibition at 100 µM (Src) [%]	LYNtide phosphorylation in presence of compound (Src; 100 µM SrcDEL10, 50 µM LYNtide, 10 nM Src, 50% without compound)	Kd (c-Src [6]) [µM]	SrcDEL10-phos. fraction by LC/MS (c-Src [3]; SrcDEL10 100 µM, 100 µM ATP, 10 µM c-Src, 30 C, 16 hours (Figure S9b)) [%]	phosphorylated compound formed (c-Src [3]; enzyme 1 µM, SrcDEL10 200 µM, ATP 1 mM, HPLC, LC/MS)	IC50 (c-Src [8]) [µM]	Compound	extent of phosphorylation (c-Src [3]; 1 µM c-Src, 200 µM LYNtide, 1 mM ATP, 30 min)	Km (c-Src [5]) [µM]	kcat (c-Src [5]) [s⁻¹]	STAT3 phosphorylation levels after EGF stimulation [7]
10,000 fold	6.5	5 µM and 5.2 µM	5.23	1.17	6.47	approximately one equivalent	–	–	–	–	–	–	DEDIYGVLP [LYNtide, optimal peptide substrate for Lyn tyrosine kinase, a Src family kinase, reference compound]	full phosphorylation; also recorded: fully phosphorylated	18	2.0	–
–	–	–	–	–	–	–	~50	~ 25%	7.5	54	~ 1%	48	NC(=O)CN(CCc1ccc(O)cc1)C(=O)[C@H](CC(=O)O)NC(=O)c1ccc(CN(CC2CC2)C(=O)CCO)cc1 [SrcDEL10]	–	–	–	No reduction
